Source: ChEMBL document CHEMBL2331177, “Pleurospiroketals A-E, perhydrobenzannulated 5,5-spiroketal sesquiterpenes from the edible mushroom Pleurotus cornucopiae” (J Nat Prod, 2013)

tested on: RAW264.7; test: Inhibition of LPS-induced nitric oxide production in mouse RAW264.7 cells treated 1 hr before LPS challenge measured after 24 hrs by Griess reaction method; assay type: functional, cell-based; conditions: not given

IC50 [µM] | SMILES
53.8 | C[C@]12CCC(=O)C=C1CC[C@@H]1[C@@H]2[C@@H](O)C[C@@]2(C)[C@H]1CC[C@]2(O)C(=O)CO [HYDROCORTISONE]
6.8 | C=C1[C@H]2CC[C@](C)(O)[C@H](O)[C@H]2O[C@@]12OC(C)(C)CC2=O [PLEUROSPIROKETAL A]
12.6 | C=C1[C@H]2CC[C@](C)(O)[C@H](O)[C@H]2O[C@]12OC(C)(C)CC2=O [PLEUROSPIROKETAL B]
20.8 | CC(=O)OCC1=C2CC[C@](C)(O)[C@H](O)[C@H]2O[C@@]12OC(C)(C)CC2=O [PLEUROSPIROKETAL C]

tested on: HeLa; test: Cytotoxicity against human HeLa cells after 72 hrs by MTT assay; assay type: functional, cell-based; conditions: not given

SMILES | IC50 [µM]
C=C1[C@H]2CC[C@](C)(O)[C@H](O)[C@H]2O[C@@]12OC(C)(C)CC2=O [PLEUROSPIROKETAL A] | 20.6
C=C1[C@H]2CC[C@](C)(O)[C@H](O)[C@H]2O[C@]12OC(C)(C)CC2=O [PLEUROSPIROKETAL B] | 32.8
CC(=O)OCC1=C2CC[C@](C)(O)[C@H](O)[C@H]2O[C@@]12OC(C)(C)CC2=O [PLEUROSPIROKETAL C] | 18.8

tested on: RAW264.7; test: Cytotoxicity against mouse RAW264.7 cells at 100 uM; assay type: cell-based; conditions: raw264.7, 100 µM

SMILES | Activity
C=C1[C@H]2CC[C@](C)(O)[C@H](O)[C@H]2O[C@@]12OC(C)(C)CC2=O [PLEUROSPIROKETAL A] | Non-toxic
C=C1[C@H]2CC[C@](C)(O)[C@H](O)[C@H]2O[C@]12OC(C)(C)CC2=O [PLEUROSPIROKETAL B] | Non-toxic
CC(=O)OCC1=C2CC[C@](C)(O)[C@H](O)[C@H]2O[C@@]12OC(C)(C)CC2=O [PLEUROSPIROKETAL C] | Non-toxic
